Reference: patent publication US20030017518A1, “Non-radio-active assay of LPS kinases” (priority 2001, published 2003)

How the values were obtained:
F470 (wild type) = assay: MIC of novobiocin and SDS, in vivo complementation assay; type: cell-based, E. coli
Source text: Site-directed mutagenesis and in vivo complementation assay—waaP was amplified by polymerase chain reaction (PCR) from pCOREc1 (de Kievit and Lam, 1997) with the flanking up- and down-stream primers ^5′[…]^3′ (SEQ ID NO: 3) and ^5′[…]^3′ (SEQ ID NO: 4) containing Baam HI and Hind III respectively. The PCR product was cloned into the complementation vector pUCP26 (West, 1994) as a positive control for complementation assay. Mutations of waaP were introduced by the method of “overlapping extension” as described by Horton (Horton, 1993) using PCR with the flanking primers as well as the primers shown below. K69A mutation was introduced with the primer (only up-strand was described here) ^5′[…]^3′ (SEQ ID NO: 5); K69R with ^5′[…]^3′ (SEQ ID NO: 6); D163A with ^5′[…]^3′ (SEQ ID NO: 7); and D163E with ^5′[…]^3′ (SEQ ID NO: 8). Underlined nucleotides indicated the mutations. The PCR products were then cloned into pUCP26 at Bam HI and Hind III sites respectively, and transformed into E. coli F470 7waaP- (Yethon 1998). Constructs of the mutations of waaP were sequenced to confirm the mutation. […]
To validate the accuracy of the alignment comparisons in FIG. 2, site-directed mutagenesis of waaPPa was performed targeting on K^69 and […], respectively. The effect of the site-directed mutation was evaluated by their ability to complement waaP-Ec. […]

[1] = system: E. coli F470 (waaP−)/waaPPa(D163A); assay: as above; type: cell-based
Source text: (§1) Site-directed mutagenesis and in vivo complementation assay—waaP was amplified by polymerase chain reaction (PCR) from pCOREc1 (de Kievit and Lam, 1997) with the flanking up- and down-stream primers ^5′[…]^3′ (SEQ ID NO: 3) and ^5′[…]^3′ (SEQ ID NO: 4) containing Baam HI and Hind III respectively. The PCR product was cloned into the complementation vector pUCP26 (West, 1994) as a positive control for complementation assay. Mutations of waaP were introduced by the method of “overlapping extension” as described by Horton (Horton, 1993) using PCR with the flanking primers as well as the primers shown below. K69A mutation was introduced with the primer (only up-strand was described here) ^5′[…]^3′ (SEQ ID NO: 5); K69R with ^5′[…]^3′ (SEQ ID NO: 6); D163A with ^5′[…]^3′ (SEQ ID NO: 7); and D163E with ^5′[…]^3′ (SEQ ID NO: 8). Underlined nucleotides indicated the mutations. The PCR products were then cloned into pUCP26 at Bam HI and Hind III sites respectively, and transformed into E. coli F470 7waaP- (Yethon 1998). Constructs of the mutations of waaP were sequenced to confirm the mutation. In vivo complementation was tested for the minimum inhibition concentration (MIC) of SDS and novobiocin, respectively according to Walsh, et al. 2000. E. coli F470 7waaP- was used as the negative control.
(§2) To validate the accuracy of the alignment comparisons in FIG. 2, site-directed mutagenesis of waaPPa was performed targeting on K^69 and […], respectively. The effect of the site-directed mutation was evaluated by their ability to complement waaP-Ec. It is noteworthy that the complementation assay was performed using waaP-Ec since waaP mutation is lethal to P. aeruginosa. In Table I, the complementation of waaP-Ec by wild type waaPPa increased the MICs of waaP-Ec by 3 and 30 times to novobiocin and SDS, respectively. However, the MICs of all the mutants were at the same level as that of waaP-Ec.

[2] = system: E. coli F470 (waaP−)/waaPPa(D163E); assay: as above; type: cell-based
Source text: as §1, §2

[3] = system: E. coli F470 (waaP−)/waaPPa(K69A); assay: as above; type: cell-based
Source text: as §1, §2

[4] = system: E. coli F470 (waaP−)/waaPPa(K69R); assay: as above; type: cell-based
Source text: as §1, §2

[5] = system: E. coli F470 (waaP−)/waaPPa; assay: as above; type: cell-based; settings: for increase of the MIC of waaP-Ec by complementation with wild type waaPPa: versus E. coli F470 waaP− mutant
Source text: as §1, §2

E. coli F470 (waaP−) = assay: as above; type: cell-based
Source text: as §1, §2

[6] = biological target: T1, WaaP from E. coli (WaaPEc) (Escherichia coli, UniProt Q9R9D6); settings: cited from earlier work
T1 construct: His-tag (N)
T1 sequence (Q9R9D6 whole entry): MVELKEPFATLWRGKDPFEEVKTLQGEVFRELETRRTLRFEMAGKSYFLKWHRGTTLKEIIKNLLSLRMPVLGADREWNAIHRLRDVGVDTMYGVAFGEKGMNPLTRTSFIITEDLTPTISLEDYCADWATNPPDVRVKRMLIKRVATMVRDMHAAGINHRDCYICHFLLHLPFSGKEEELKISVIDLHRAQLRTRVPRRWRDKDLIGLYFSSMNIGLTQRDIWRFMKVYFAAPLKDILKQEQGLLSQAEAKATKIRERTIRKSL

WaaPHisC = biological target: T2, WaaPHisC (Pseudomonas aeruginosa, UniProt Q9HUF7); type: biochemical, P. aeruginosa
T2 construct: made in house; host or cells: E. coli BL21(DE3)pLysS, vector pET30a(+)
Experimental: Antigen coating was accomplished by adding 50 μl LPS or enzyme reaction mixture to each well and then mixing with equal amount of chloroform-ethanol ([…]/EtOH) (1:10, v/v)). The plate was incubated at room temperature in the fume hood (flow rate at 150 ft·min^−1) overnight to allow the evaporation of the solvent. The ELISA was performed according to Bantroch et al. (1994) (Bantroch, 1994) with the following modifications. […] For the colorimetric method (Bantroch, 1994), the ELISA was developed at 37° C. for 2 h and the optical density at 405 nm was determined on a microplate reader (Flow Laboratories, Mississauga, ON). For the chemiluminescence development, 100 μl of the chemiluminescence substrate CDP-Star® Ready-to-Use with Emerald-II™ (CDP*) (Applied Biosystems, Bedford, Mass.) with 1:5 (v/v) diluted in diethanolamine buffer (9.6% (v/v) and 0.01% (w/v) MgCl2, pH 9.8) was added to each well. After incubation at room temperature for 20 min, the response of chemiluminescence was measured on a 1420-VICTOR^2 Multilabel Counter (Wallac, Montreal, QC) using chemiluminescence program.
The reaction mixture was incubated at 37° C. for 30 min (15 min for kinetics experiments) and quenched by the addition of 50 μl chloroform/ethanol (1:10) solution. The plate was then left at room temperature in the fume hood overnight and subjected to ELISA the next morning. PAO1-LPS was used as the standard to quantify phosphorylated LPS.
Therefore, the reactions on the kinetics studies measured the phosphorylation within the initial 15 min.

## CCCCCCCCCCCCOS(=O)(=O)[O-].[Na+] [SDS]
F470 (wild type); strain F470 (wild type)
  MIC: >50,000 μg.ml^−1
[1]; strain E. coli F470 (waaP−)/waaPPa(D163A)
  MIC: 400 µg/mL
[2]; strain E. coli F470 (waaP−)/waaPPa(D163E)
  MIC: 200 µg/mL
[3]; strain E. coli F470 (waaP−)/waaPPa(K69A)
  MIC: 400 µg/mL
[4]; strain E. coli F470 (waaP−)/waaPPa(K69R)
  MIC: 400 µg/mL
[5]; strain E. coli F470 (waaP−) complemented with wild type waaPPa
  MIC: 12,500 μg.ml^−1
[5]
  increase of the MIC of waaP-Ec by complementation with wild type waaPPa: 30 times
E. coli F470 (waaP−); strain E. coli F470 (waaP−)
  MIC: 400 µg/mL

## Nc1ncnc2c1ncn2[C@@H]1O[C@H](COP(=O)(O)OP(=O)(O)OP(=O)(O)O)[C@@H](O)[C@H]1O [ATP, adenosine triphosphate]
[6]
  Km: 130 µM

## CO[C@@H]1[C@@H](OC(N)=O)[C@@H](O)[C@H](Oc2ccc3c(O)c(NC(=O)c4ccc(O)c(CC=C(C)C)c4)c(=O)oc3c2C)OC1(C)C [Novobiocin, novobiocin]
F470 (wild type); Escherichia coli
  MIC: > 200 µg/mL
[1]; Escherichia coli
  MIC: 25 µg/mL
[2]; Escherichia coli
  MIC: 50 µg/mL
[3]; Escherichia coli
  MIC: 50 µg/mL
[4]; Escherichia coli
  MIC: 50 µg/mL
[5]; Escherichia coli
  MIC: 150 µg/mL
[5]
  increase of the MIC of waaP-Ec by complementation with wild type waaPPa: 3 times
E. coli F470 (waaP−); Escherichia coli
  MIC: 50 µg/mL

B1: WaaPHisC: recombinant P. aeruginosa WaaP with C-terminal 6×His tag, heptose/tyrosine kinase (protein, UniProt Q9HUF7 1-268, looked up)
Lipopolysaccharide core …: MRLVLEEPFKRLWNGRDPFEAVEALQGKVYRELEGRRTLRTEVDGRGYFVKIHRGIGWGEIAKNLLTAKLPVLGARQEWQAIRRLHEAGVATMTAVAYGERGSDPARQHSFIVTEELAPTVDLEVFSQDWRERPPPPRLKRALVEAVARMVGDMHRAGVNHRDCYICHFLLHTDKPVSADDFRLSVIDLHRAQTRDATPKRWRNKDLAALYFSALDIGLTRRDKLRFLRTYFRRPLREILRDEAGLLAWMERKAEKLYERKQRYGDLL
modifications: C-terminal 6xHis tag
notes: recombinant P. aeruginosa WaaP with C-terminal 6×His tag, heptose/tyrosine kinase
WaaPHisC; phosphorylation of HF-LPS
  Vmax: 408.24 pmol/min
  kcat: 0.4538 s⁻¹
WaaPHisC; storage at −20° C. for 7 days
  enzyme activity remained after storage: about 70%
